Reference: US12522596B2, “Compounds as GLP-1R agonists” (Terns Pharmaceuticals, Inc., priority 2021, dated 2026)

Tests used:
human GLP-1R receptor = molecular target: T1, human GLP-1R receptor (Homo sapiens, UniProt P43220); experiment: GLP-1R low expression cell assay (cAMP TR-FRET, CHO-K1_hGLP-1Rlow_clone10); assay type: cell-based; settings: CHO-K1_hGLP-1Rlow_clone10 cells
T1 construct: expressed in transfected cells
Protocol: Stable cell lines expressing high and low GLP-1R surface expression were generated in CHO-K1 cells transfected (Fugene 6) with a puromycin selectable DNA plasmid encoding human GLP-1R receptor (accession number: NM_002062.5) under control of an EF1A promoter. Transfected cells were seeded into 24-well plates (9,000 cells/well) containing complete medium and incubated in a humidified incubator at 37° C. with 5% carbon dioxide. After overnight incubation, medium was replaced with complete medium supplemented with puromycin (6 μg/mL) and refreshed every 2-3 days to select for stably transfected cells. Individual pools of selected cells were expanded prior to analysis for responsiveness to GLP-1 control peptide using a TR-FRET assay to detect cAMP (LANCE Ultra CAMP Assay, Perkin Elmer). Briefly, cells were collected in Versene solution, plated in 384-well plates (1,000 cells/well) and combined with serially diluted GLP-1R control peptide (10 nL) using an acoustic dispenser (ECHO). Plates were incubated for 30 minutes at 25° C. prior to the addition of EU-CAMP tracer (5 μL) and Ulight-anti-cAMP (5 μL) reagents to each well, followed by 15 minutes incubation at 25° C. TR-FRET signal was detected using an En Vision Multimode Plate Reader (excitation=320 nm; emission=615 and 655 nm). Dose-response curves were used to generate EC50 values as a measure of responsiveness to the GLP-1R control peptide. Selected cell lines were monitored for responsiveness over multiple passages to ensure stability. […] Briefly, GLP-1R expression was analyzed by flow cytometry using a fluorescein-labeled Exendin-4 peptide fluorescent probe (FLEX). Cells were harvested in Versene solution and washed 3-times with PBS+0.5% BSA before incubation with FLEX reagent (10 μM) for 2 hours at room temperature. After incubation, cells were washed 3-times in PBS+0.5% BSA before final resuspension in PBS prior to analysis by flow cytometry to measure FLEX mean fluorescence intensity (MFI) as a measure of GLP-1R expression on the cell surface.
For compound testing in the CHO-K1_hGLP-1Rlow_clone10 cell line, cells were seeded in 384-well plates (1,000 cells/well). Test compounds were serially diluted in DMSO (10-point, 3-fold dilution), added to wells using an ECHO dispenser (10 nL/well) and plates were centrifuged for 1 min and agitated for 2 min at room temperature prior to 30-minute incubation at 25° C. After incubation, Eu-CAMP (5 μL) and Ulight-anti-cAMP (5 μL) reagents were added to each well, followed by centrifugation for 1 minute, agitation for 2 minutes at room temperature, and final incubation of the plates at 25° C. for 15 minutes. Plates were read using an EnVision microplate reader (excitation=320 nm; emission=615 and 655 nm). Dose-response curves were generated from duplicate wells based on percent activation calculated relative to a control GLP-1 peptide agonist that was run in parallel. EC50 values were determined by fitting percent activation as a function of compound concentration using the Hill equation (XLfit).
Stable cell lines expressing high and low GLP-1R surface expression were generated in CHO-K1 cells transfected (Fugene 6) with a puromycin selectable DNA plasmid encoding human GLP-1R receptor (accession number: NM_002062.5) under control of an EF1A promoter. Transfected cells were seeded into 24-well plates (9,000 cells/well) containing complete medium and incubated in a humidified incubator at 37° C. with 5% carbon dioxide. After overnight incubation, medium was replaced with complete medium supplemented with puromycin (6 μg/mL) and refreshed every 2-3 days to select for stably transfected cells. Individual pools of selected cells were expanded prior to analysis for responsiveness to GLP-1 control peptide using a TR-FRET assay to detect cAMP (LANCE Ultra CAMP Assay, Perkin Elmer).

[1] = Rat pharmacokinetics, oral dosing; assay type: in vivo, Sprague-Dawley rats; settings: rat; for AUC(0-t) / Cmax / half-life: male, Sprague-Dawley, plasma, po, 3 mg/kg, rat plasma
Protocol: Oral dosing: Compounds were formulated at 0.3 mg/mL or 0.6 mg/mL in a solution comprising 5% polyethylene glycol 400 and 95% (12% (w/v) sulfobutyl-β-cyclodextrin in water) (v/v). Formulated compounds were administered to male, 7-11 week old Sprague-Dawley rats by oral gavage at a dose of 3 mg/kg.
Sample collection: Blood collections of about 0.2 mL per time point were performed from jugular vein or other suitable site of each animal, into pre-chilled commercial EDTA-K2 tubes and placed on wet ice until centrifugation. Blood samples were processed for plasma by centrifugation at approximately 4° C., 3,200 g for 10 min. Plasma was collected and transferred into pre-labeled 96 well plate or polypropylene tubes, quick frozen over dry ice and kept at −60° C. or lower until LC-MS/MS analysis.
Data analysis: Plasma concentration versus time data was plotted in graph and analyzed by non-compartmental approaches using the Phoenix WinNonlin 6.3 software program. Related PK parameters were calculated according to dosing route, e.g., CL, Vdss and C0 for intravenous administration, Cmax, Tmax or % F for extravascular administration, and T1/2, AUC(0-t), AUC(0-inf), MRT(0-t), MRT(0-inf) for all routes.

T1 sequence (P43220 24-463): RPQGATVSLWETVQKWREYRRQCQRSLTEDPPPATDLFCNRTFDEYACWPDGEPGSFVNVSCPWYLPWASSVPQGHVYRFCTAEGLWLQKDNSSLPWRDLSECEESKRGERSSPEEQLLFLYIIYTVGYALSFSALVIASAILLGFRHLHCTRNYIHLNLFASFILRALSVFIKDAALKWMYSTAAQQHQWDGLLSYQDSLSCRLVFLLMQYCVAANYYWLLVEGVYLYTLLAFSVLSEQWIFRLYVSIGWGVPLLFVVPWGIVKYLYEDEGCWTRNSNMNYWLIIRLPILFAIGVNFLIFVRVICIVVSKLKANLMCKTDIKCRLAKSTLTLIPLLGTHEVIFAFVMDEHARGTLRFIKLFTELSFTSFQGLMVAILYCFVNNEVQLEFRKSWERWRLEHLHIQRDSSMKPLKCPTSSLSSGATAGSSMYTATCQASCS

EC50 (human GLP-1R receptor) [nM] | SMILES | AUC(0-t) ([1]; 3 mg/kg PO (0.3 mg/mL)) [ng·h/mL] | Cmax ([1]; 3 mg/kg PO (0.3 mg/mL)) [ng/mL] | half-life ([1]; 3 mg/kg PO (0.3 mg/mL)) [min] | AUC(0-t) ([1]; 3 mg/kg PO (0.6 mg/mL)) [ng·h/mL] | Cmax ([1]; 3 mg/kg PO (0.6 mg/mL)) [ng/mL] | half-life ([1]; 3 mg/kg PO (0.6 mg/mL)) [min] | PK properties relative to Reference Compound A ([1]; dosed orally) | higher AUC relative to Reference Compound A ([1]; oral administration)
2.5 | Cc1ncsc1Cn1c(CN2CCC(c3cccc(OCc4ccc(C#N)cc4F)n3)CC2)nc2ccc(C(=O)O)cc21 [Compound 4] | 28.3 ± 21.7 | 21.6 ± 9.8 | 57.6 ± 19.8 |  |  |  |  | 
9.4 | N#Cc1ccc(COc2ccnc(C3CCN(Cc4nc5ccc(C(=O)O)cc5n4Cc4cncs4)CC3)n2)c(F)c1 [Compound 20] |  |  |  |  |  |  |  | 
1.7 | N#Cc1ccc(COc2cccc(N3CCN(Cc4nc5ccc(C(=O)O)cc5n4Cc4cncs4)CC3)n2)c(F)c1 [Compound 30] |  |  |  |  |  |  |  | 
0.6 | CC1(c2ccc(C#N)cc2F)Oc2cccc(C3CCN(Cc4nc5ccc(C(=O)O)cc5n4Cc4cncs4)CC3)c2O1 (stereo not shown) [Compound 31] |  |  |  |  |  |  |  | 
 | N#Cc1ccc(COc2cccc(C3CCN(Cc4nc5ccc(C(=O)O)cc5n4C[C@@H]4CCO4)CC3)n2)c(F)c1 [Reference Compound A, reference compound] | 60.6 ± 9.01 | 37.7 ± 8.09 | 120 ± 64.2 | 121 ± 36.9 | 102 ± 57 | 101 ± 26.4 |  | 

SMILES | EC50 (human GLP-1R receptor) [nM] | AUC(0-t) ([1]; 3 mg/kg PO (0.3 mg/mL)) [ng·h/mL] | Cmax ([1]; 3 mg/kg PO (0.3 mg/mL)) [ng/mL] | half-life ([1]; 3 mg/kg PO (0.3 mg/mL)) [min] | AUC(0-t) ([1]; 3 mg/kg PO (0.6 mg/mL)) [ng·h/mL] | Cmax ([1]; 3 mg/kg PO (0.6 mg/mL)) [ng/mL] | half-life ([1]; 3 mg/kg PO (0.6 mg/mL)) [min] | PK properties relative to Reference Compound A ([1]; dosed orally) | higher AUC relative to Reference Compound A ([1]; oral administration)
N#Cc1ccc(COc2cccc(C3CCN(Cc4nc5ccc(C(=O)O)cc5n4Cc4cncs4)CC3)n2)c(F)c1 [Compound 2] | 3.1 | 384 ± 182 | 117 ± 61 | 198 ± 26.4 | 525 ± 138 | 491 ± 256 | 160 ± 104 | significantly enhanced PK properties | 4-6 fold
